Data as given in patent US20130102595A1 (Curis, Inc., priority 2011, published 2013).

Columns and labels:
[1] = system: HDACs (HeLa cell nuclear extracts); experiment: HDAC enzymatic activity, Biomol Color de Lys system; format: biochemical; conditions: 1 hour, 25° C.
Summary of the method: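 HeLa nuclear extract incubated with serially diluted compound and […] artificial substrate in 50 mM Tris/Cl pH 8.0, 137 mM NaCl, 2.7 mM KCl, 1 mM MgCl2. Run 1 h at 25 °C, stopped with developer. Fluorescence read (ex 350-380, em 440-460 nm); IC50 from sigmoidal dose-response fit.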

PI3Kα (p110α/p85α) = target: T1, PI3Kα (p110α/p85α) (Homo sapiens, UniProt P42336); experiment: PI3Kα ADP-Glo assay; format: biochemical; conditions: 20 μM PIP2, 10 μM ATP, 30 minutes
T1 construct: GST (N); made in house; host or cells: Baculovirus-infected Sf9 cells
Summary of the method: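 Recombinant full-length human GST-p110α/His-p85α, co-expressed in Sf9 cells, was incubated 30 min at room temperature with 20 μM PIP2 and 10 μM ATP. The buffer was 50 mM HEPES pH 7.4, 150 mM NaCl, 5 mM MgCl2, 1 mM DTT, 3 µM orthovanadate and 0.5% DMSO. ADP formed was detected by ADP-Glo luminescence.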

T1 sequence (P42336 whole entry): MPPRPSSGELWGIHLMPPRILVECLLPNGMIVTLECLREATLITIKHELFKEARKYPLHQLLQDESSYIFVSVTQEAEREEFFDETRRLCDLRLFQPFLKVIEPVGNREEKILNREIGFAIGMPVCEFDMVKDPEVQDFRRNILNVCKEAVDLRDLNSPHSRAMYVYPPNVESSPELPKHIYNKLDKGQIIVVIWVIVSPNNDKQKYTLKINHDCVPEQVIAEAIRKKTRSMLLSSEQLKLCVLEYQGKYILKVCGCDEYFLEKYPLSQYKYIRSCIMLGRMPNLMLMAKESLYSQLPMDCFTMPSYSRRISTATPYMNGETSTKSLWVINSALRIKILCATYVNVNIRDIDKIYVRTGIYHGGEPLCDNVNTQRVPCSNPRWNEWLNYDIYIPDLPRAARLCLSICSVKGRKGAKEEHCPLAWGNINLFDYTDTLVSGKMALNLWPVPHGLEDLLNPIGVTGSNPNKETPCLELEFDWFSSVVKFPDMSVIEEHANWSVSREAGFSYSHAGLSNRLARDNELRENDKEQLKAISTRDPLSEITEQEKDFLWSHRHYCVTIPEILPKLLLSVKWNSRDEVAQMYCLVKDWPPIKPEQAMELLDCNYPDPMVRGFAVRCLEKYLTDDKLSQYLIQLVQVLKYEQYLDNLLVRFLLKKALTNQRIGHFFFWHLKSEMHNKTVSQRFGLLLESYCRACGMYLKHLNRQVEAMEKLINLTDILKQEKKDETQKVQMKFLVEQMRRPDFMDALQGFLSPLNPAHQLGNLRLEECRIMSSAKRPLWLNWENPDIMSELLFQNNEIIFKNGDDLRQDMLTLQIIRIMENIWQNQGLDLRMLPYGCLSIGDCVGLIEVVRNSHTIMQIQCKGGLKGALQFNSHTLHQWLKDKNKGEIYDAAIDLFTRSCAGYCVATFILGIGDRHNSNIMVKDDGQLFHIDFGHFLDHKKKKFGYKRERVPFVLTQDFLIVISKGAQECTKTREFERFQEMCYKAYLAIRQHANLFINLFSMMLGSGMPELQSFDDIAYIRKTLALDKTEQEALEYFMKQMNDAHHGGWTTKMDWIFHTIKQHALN
T1 sequence (P27986 whole entry partner): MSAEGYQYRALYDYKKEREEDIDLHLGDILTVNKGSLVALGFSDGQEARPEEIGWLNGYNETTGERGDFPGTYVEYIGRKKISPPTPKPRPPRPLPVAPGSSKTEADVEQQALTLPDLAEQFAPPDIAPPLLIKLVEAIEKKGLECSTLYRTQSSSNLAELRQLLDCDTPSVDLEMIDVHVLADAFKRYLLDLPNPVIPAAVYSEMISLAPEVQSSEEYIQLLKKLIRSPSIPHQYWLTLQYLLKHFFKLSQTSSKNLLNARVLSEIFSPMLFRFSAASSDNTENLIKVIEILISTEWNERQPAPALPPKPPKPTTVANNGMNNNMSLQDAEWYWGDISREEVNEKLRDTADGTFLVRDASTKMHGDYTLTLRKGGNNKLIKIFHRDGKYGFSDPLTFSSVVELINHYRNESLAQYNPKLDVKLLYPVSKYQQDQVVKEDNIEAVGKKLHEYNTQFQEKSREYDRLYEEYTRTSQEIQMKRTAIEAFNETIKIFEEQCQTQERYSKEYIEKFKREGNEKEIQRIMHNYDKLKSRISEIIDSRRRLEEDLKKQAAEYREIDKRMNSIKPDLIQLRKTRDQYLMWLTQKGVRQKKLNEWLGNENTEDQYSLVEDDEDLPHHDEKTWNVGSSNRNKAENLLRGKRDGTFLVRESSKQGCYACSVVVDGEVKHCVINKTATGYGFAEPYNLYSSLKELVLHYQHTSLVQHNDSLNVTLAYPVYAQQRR

IC50 [1] [nM]	IC50 (PI3Kα (p110α/p85α)) [nM]	melting point	SMILES
< 100	100 to 1000	222 to 223 °C	CN(Cc1cc2nc(-c3ccc(C(F)(F)F)cc3)nc(N3CCOCC3)c2s1)c1ncc(C(=O)NO)cn1 [Compound 202, N-hydroxy-2-(methyl((4-morpholino-2-(4-(trifluoromethyl)phenyl)thieno[3,2-d]pyrimidin-6-yl)methyl)amino)pyrimidine-5-carboxamide]
< 100	100 to 1000	149 to 152 °C	O=C(CCCNCc1cc2nc(-c3cccc4[nH]ncc34)nc(N3CCOCC3)c2s1)NO [Compound 41, 4-((2-(1H-indazol-4-yl)-4-morpholinothieno[3,2-d]pyrimidin-6-yl)methylamino)-N-hydroxybutanamide]
< 100	> 10000	170 to 175 °C	CNCCOc1ccc(-c2nc(N3CCOCC3)c3sc(CN(C)c4ncc(C(=O)NO)cn4)cc3n2)cn1 [Compound 258, N-Hydroxy-2-(methyl((2-(6-(2-(methylamino)ethoxy)pyridin-3-yl)-4-morpholinothieno[3,2-d]pyrimidin-6-yl)methyl)amino)pyrimidine-5-carboxamide]
< 100	100 to 1000	179 to 181 °C	COc1cccc(-c2nc(N3CCOCC3)c3sc(CN(C)c4ncc(C(=O)NO)cn4)cc3n2)c1 [Compound 130, N-hydroxy-2-(((2-(3-methoxyphenyl)-4-morpholinothieno[3,2-d]pyrimidin-6-yl)methyl)(methyl)amino)pyrimidine-5-carboxamide]
< 100	< 100	259 to 265 °C	COc1ccc(-c2nc(N3CCOCC3)c3sc(S(=O)(=O)Nc4ncc(C(=O)NO)cn4)cc3n2)cn1 [Compound 252, 2-[2-(6-Methoxy-pyridin-3-yl)-4-morpholin-4-yl-thieno[3,2-d]pyrimidine-6-sulfonylamino]-pyrimidine-5-carboxylic acid hydroxyamide]
< 100	100 to 1000	188 to 192 °C	CN(Cc1cc2nc(-c3cccc(SCCO)c3)nc(N3CCOCC3)c2s1)c1ncc(C(=O)NO)cn1 [Compound 290, N-Hydroxy-2-(((2-(3-(2-hydroxyethylthio)phenyl)-4-morpholinothieno[3,2-d]pyrimidin-6-yl)methyl)(methyl)amino)pyrimidine-5-carboxamide]
< 100	< 100	218 to 220 °C	O=C(NO)c1ccc(NCc2cc3nc(-c4cccc5[nH]ncc45)nc(N4CCOCC4)c3s2)nc1 [Compound 76, 6-((2-(1H-indazol-4-yl)-4-morpholinothieno[3,2-d]pyrimidin-6-yl)methylamino)-N-hydroxynicotinamide]
< 100	< 100	210 to 215 °C	COc1ncc(-c2nc(N3CCOCC3)c3sc(C(C)N(C)c4ncc(C(=O)NO)cn4)cc3n2)cn1 (stereo not drawn) [Compound 262, N-Hydroxy-2-((1-(2-(2-methoxypyrimidin-5-yl)-4-morpholinothieno[3,2-d]pyrimidin-6-yl)ethyl)(methyl)amino)pyrimidine-5-carboxamide]
100 to 1000	100 to 1000	146 to 169 °C	CS(=O)(=O)N1CCN(Cc2cc3nc(-c4cccc5nn(CCCCC(=O)NO)cc45)nc(N4CCOCC4)c3s2)CC1 [Compound 7, N-hydroxy-5-(4-(6-((4-(methylsulfonyl)piperazin-1-yl)methyl)-4-morpholinothieno[3,2-d]pyrimidin-2-yl)-2H-indazol-2-yl)pentanamide]
< 100	> 10000	206 to 208 °C	CN(Cc1cc2nc(-c3ccc(S(C)(=O)=O)cc3)nc(N3CCOCC3)c2s1)c1ncc(C(=O)NO)cn1 [Compound 149, N-hydroxy-2-(methyl((2-(4-(methylsulfonyl)phenyl)-4-morpholinothieno[3,2-d]pyrimidin-6-yl)methyl)amino)pyrimidine-5-carboxamide]
< 100	< 100	125 to 130 °C	COc1ccc(-c2nc(N3CCOCC3)c3sc(NCCCCCC(=O)NO)cc3n2)cn1 [Compound 233, 6-[2-(6-Methoxy-pyridin-3-yl)-4-morpholin-4-yl-thieno[3,2-d]pyrimidin-6-ylamino]-hexanoic acid hydroxyamide]
< 100	100 to 1000	200 to 212 °C	CN(Cc1cc2nc(-c3cccc4[nH]ccc34)nc(N3CCOCC3)c2s1)c1ncc(C(=O)NO)cn1 [Compound 176, 2-(((2-(1H-indol-4-yl)-4-morpholinothieno[3,2-d]pyrimidin-6-yl)methyl)(methyl)amino)-N-hydroxypyrimidine-5-carboxamide]
< 100	< 100	190 to 197 °C	CNc1ccc(-c2nc(N3CCOCC3)c3sc(S(=O)(=O)NCC4CCN(c5ncc(C(=O)NO)cn5)CC4)cc3n2)cn1 [Compound 310, N-Hydroxy-2-(4-((2-(6-(methylamino)pyridin-3-yl)-4-morpholinothieno[3,2-d]pyrimidine-6-sulfonamido)methyl)piperidin-1-yl)pyrimidine-5-carboxamide]
< 100	> 10000	218 to 220 °C	CNc1ccc(-c2nc(N3CCOCC3)c3sc(CN(C)c4ncc(C(=O)NO)cn4)cc3n2)cc1 [Compound 151, N-hydroxy-2-(methyl((2-(4-(methylamino)phenyl)-4-morpholinothieno[3,2-d]pyrimidin-6-yl)methyl)amino)pyrimidine-5-carboxamide]
< 100	> 10000	247 °C (dec.)	COc1ccc(-c2nc(N3CCOCC3)c3sc(CN(C)c4ncc(C(=O)NO)cn4)cc3n2)cc1 [Compound 131, N-hydroxy-2-(((2-(4-methoxyphenyl)-4-morpholinothieno[3,2-d]pyrimidin-6-yl)methyl)(methyl)amino)pyrimidine-5-carboxamide]
< 100	1000 to 10000	215 to 217 °C	CNC(=O)c1cccc(-c2nc(N3CCOCC3)c3sc(CN(C)c4ncc(C(=O)NO)cn4)cc3n2)c1 [Compound 144, N-hydroxy-2-(methyl((2-(3-(methylcarbamoyl)phenyl)-4-morpholinothieno[3,2-d]pyrimidin-6-yl)methyl)amino)pyrimidine-5-carboxamide]
< 100	< 100	175 to 189 °C	CN(Cc1cc2nc(-c3cc[nH]c3)nc(N3CCOCC3)c2s1)c1ncc(C(=O)NO)cn1 [Compound 197, N-hydroxy-2-(methyl((4-morpholino-2-(1H-pyrrol-3-yl)thieno[3,2-d]pyrimidin-6-yl)methyl)amino)pyrimidine-5-carboxamide]
< 100	> 10000	214 to 216 °C	CN(Cc1cc2nc(-c3ccc(C#N)cc3)nc(N3CCOCC3)c2s1)c1ncc(C(=O)NO)cn1 [Compound 146, 2-(((2-(4-cyanophenyl)-4-morpholinothieno[3,2-d]pyrimidin-6-yl)methyl)(methyl)amino)-N-hydroxypyrimidine-5-carboxamide]
< 100	100 to 1000	234 to 236 °C	CCCCN(Cc1cc2nc(-c3cccc4[nH]ncc34)nc(N3CCOCC3)c2s1)c1ncc(C(=O)NO)cn1 [Compound 85, 2-(((2-(1H-indazol-4-yl)-4-morpholinothieno[3,2-d]pyrimidin-6-yl)methyl)(butyl)amino)-N-hydroxypyrimidine-5-carboxamide]
< 100	< 100	220 to 225 °C	Nc1ncc(-c2nc(N3CCOCC3)c3sc(NCCCCCC(=O)NO)cc3n2)cn1 [Compound 232, 6-[2-(2-Amino-pyrimidin-5-yl)-4-morpholin-4-yl-thieno[3,2-d]pyrimidin-6-ylamino]-hexanoic acid hydroxyamide]
< 100	< 100	232 to 235 °C	CN(Cc1cc2nc(-c3cccc4[nH]ncc34)nc(Nc3ccccc3)c2s1)c1ncc(C(=O)NO)cn1 [Compound 164, 2-(((2-(1H-indazol-4-yl)-4-(phenylamino)thieno[3,2-d]pyrimidin-6-yl)methyl)(methyl)amino)-N-hydroxypyrimidine-5-carboxamide]
< 100	< 100	175 to 180 °C	Nc1ncc(-c2nc(N3CCOCC3)c3sc(NCCCCC(=O)NO)cc3n2)cn1 [Compound 226]
< 100	> 10000	192 to 196 °C	CCN(CC)c1ccc(-c2nc(N3CCOCC3)c3sc(CN(C)c4ncc(C(=O)NO)cn4)cc3n2)cc1 [Compound 154, 2-(((2-(4-(Diethylamino)phenyl)-4-morpholinothieno[3,2-d]pyrimidin-6-yl)methyl)(methyl)amino)-N-hydroxypyrimidine-5-carboxamide]
< 100	100 to 1000	184 to 186 °C	CN(Cc1cc2nc(-c3ccc(CN)cc3)nc(N3CCOCC3)c2s1)c1ncc(C(=O)NO)cn1 [Compound 135, 2-(((2-(4-(aminomethyl)phenyl)-4-morpholinothieno[3,2-d]pyrimidin-6-yl)methyl)(methyl)amino)-N-hydroxypyrimidine-5-carboxamide]
